Results from patent publication US4644055A, “Method for preparing specific inhibitors of virus-specified proteases” (priority 1984, dated 1987).
Read-outs that look alike come from different tables or passages of the source. Starred links: 1 amine or outer side, 2 acyl side, 3 side chain; linkers in the order of their positions; H or OH if unused. *: point of attachment. code Z = not defined here; MeOSuc = COC(=O)CCC(=O)*; CH2 = C([*:1])[*:2]; CH2Cl = ClC*

Legend:
poliovirus = conditions: cited from earlier work
echovirus-12 = conditions: Korant 1972; cited from earlier work
chymotrypsin = chymotrypsin (Bos taurus, UniProt P00766); conditions: inhibitor concentration 600 μg/mL; Ito et al. 1972; cited from earlier work
[1] = system: human poliomyelitisvirus type 2; type: cell-based, poliovirus type 2; design: key to Comparative Experiments Involving Other Peptide Halomethyl Ketones: Activity: -: no activity; +/-: low activity; +: active at 100 μg/mL; ++: active at 50 μg/mL; +++: active at 10 μg/mL; ++++: active at <5 μg/mL
human rhinovirus type 1A [2] = type: cell-based
human rhinovirus type 1A [3] = assay: Plaque inhibition assay, rhinovirus; type: cell-based
poliovirus type 2 = type: cell-based

Cc1ccc(S(=O)(=O)NC(CCCCN)C(=O)CCl)cc1 (stereo not drawn) [TLCK, tolylsulfonyllysyl chloromethyl ketone]
inhibition of poliovirus protein processing / protease cleavage of poliovirus-specific polypeptides (poliovirus): inhibition | inhibition of echovirus-12 protein processing (echovirus-12): inhibition

Cc1ccc(S(=O)(=O)N[C@@H](Cc2ccccc2)C(=O)CCl)cc1 [TPCK, tolylsulfonylphenylalanyl chloromethyl ketone]
inhibition of poliovirus protein processing / protease cleavage of poliovirus-specific polypeptides (poliovirus): inhibition | inhibition of echovirus-12 protein processing (echovirus-12): inhibition

Ac-Leu-Leu-PheCH3
inhibition of chymotrypsin (chymotrypsin): no inhibition was observed

MeOSuc-Phe-Gly-Leu-LeuCH3 (MeOSuc-FGLL-CH2; SMILES COC(=O)CCC(=O)N[C@@H](Cc1ccccc1)C(=O)NCC(=O)N[C@@H](CC(C)C)C(=O)N[C@@H](CC(C)C)C(C)=O)
activity in the viral cleavage assay ([1]; 50 μg/mL): active

Z-- Phe--Gly--Pro--LeuCH2 Cl ({code Z}-FGPL-CH2Cl; reading uncertain; also: printed as Z-- Phe--Gly--Pro--LeuCH2 Cl)
Protease-Inhibiting Activity of Selected Peptide Halomethyl Ketones: Activity [1]: ++ (key: -: no activity; +/-: low activity; +: active at 100 μg/mL; ++: active at 50 μg/mL; +++: active at 10 μg/mL; ++++: active at <5 μg/mL)

Z--Ala--Gly--Ala--LeuCH2 Cl ({code Z}-AGAL-CH2Cl; reading uncertain; also: printed as Z--Ala--Gly--Ala--LeuCH2 Cl)
Comparative Experiments Involving Other Peptide Halomethyl Ketones: Activity [1]: +/-

Z--Gln--Gly--Ala--LeuCH2 Cl ({code Z}-QGAL-CH2Cl; reading uncertain; also: printed as Z--Gln--Gly--Ala--LeuCH2 Cl)
Comparative Experiments Involving Other Peptide Halomethyl Ketones: Activity [1]: + (key: -: no activity; +/-: low activity; +: active at 100 μg/mL; ++: active at 50 μg/mL; +++: active at 10 μg/mL; ++++: active at <5 μg/mL)

Z--Leu--Gly--Ala--LeuCH2 Cl ({code Z}-LGAL-CH2Cl; reading uncertain; also: printed as Z--Leu--Gly--Ala--LeuCH2 Cl)
Protease-Inhibiting Activity of Selected Peptide Halomethyl Ketones: Activity [1]: +++ (key: -: no activity; +/-: low activity; +: active at 100 μg/mL; ++: active at 50 μg/mL; +++: active at 10 μg/mL; ++++: active at <5 μg/mL)

Z--Phe--Gly--Gly--LeuCH2 Cl ({code Z}-FGGL-CH2Cl; reading uncertain; also: printed as Z--Phe--Gly--Gly--LeuCH2 Cl)
Protease-Inhibiting Activity of Selected Peptide Halomethyl Ketones: Activity [1]: +++ (key: -: no activity; +/-: low activity; +: active at 100 μg/mL; ++: active at 50 μg/mL; +++: active at 10 μg/mL; ++++: active at <5 μg/mL)

Z--Phe--Gly--Lys--LeuCH2 Cl ({code Z}-FGKL-CH2Cl; reading uncertain; also: printed as Z--Phe--Gly--Lys--LeuCH2 Cl)
Comparative Experiments Involving Other Peptide Halomethyl Ketones: Activity [1]: + (key: -: no activity; +/-: low activity; +: active at 100 μg/mL; ++: active at 50 μg/mL; +++: active at 10 μg/mL; ++++: active at <5 μg/mL)

Z--Phe--Gly--Phe--LeuCH2 Cl ({code Z}-FGFL-CH2Cl; reading uncertain; also: printed as Z--Phe--Gly--Phe--LeuCH2 Cl)
Protease-Inhibiting Activity of Selected Peptide Halomethyl Ketones: Activity [1]: ++ (key: -: no activity; +/-: low activity; +: active at 100 μg/mL; ++: active at 50 μg/mL; +++: active at 10 μg/mL; ++++: active at <5 μg/mL)

Z--Phe--Leu--Ala--LeuCH2 Cl ({code Z}-FLAL-CH2Cl; reading uncertain; also: printed as Z--Phe--Leu--Ala--LeuCH2 Cl)
Protease-Inhibiting Activity of Selected Peptide Halomethyl Ketones: Activity [1]: ++ (key: -: no activity; +/-: low activity; +: active at 100 μg/mL; ++: active at 50 μg/mL; +++: active at 10 μg/mL; ++++: active at <5 μg/mL)

Z--Phe--Lys--Ala--LeuCH2 Cl ({code Z}-FKAL-CH2Cl; reading uncertain; also: printed as Z--Phe--Lys--Ala--LeuCH2 Cl)
Comparative Experiments Involving Other Peptide Halomethyl Ketones: Activity [1]: + (key: -: no activity; +/-: low activity; +: active at 100 μg/mL; ++: active at 50 μg/mL; +++: active at 10 μg/mL; ++++: active at <5 μg/mL)

Z--Phe--Phe--Ala--LeuCH2 Cl ({code Z}-FFAL-CH2Cl; reading uncertain; also: printed as Z--Phe--Phe--Ala--LeuCH2 Cl)
Comparative Experiments Involving Other Peptide Halomethyl Ketones: Activity [1]: +/-

Z--Phe--Pro--Ala--LeuCH2 Cl ({code Z}-FPAL-CH2Cl; reading uncertain; also: printed as Z--Phe--Pro--Ala--LeuCH2 Cl)
Comparative Experiments Involving Other Peptide Halomethyl Ketones: Activity [1]: + (key: -: no activity; +/-: low activity; +: active at 100 μg/mL; ++: active at 50 μg/mL; +++: active at 10 μg/mL; ++++: active at <5 μg/mL)

Z-Phe-Gly-Ala-LeuCH2 Br ({code Z}-FGAL-CH2Br; reading uncertain; also: printed as Z-Phe-Gly-Ala-LeuCH2 Br) [Z--Phe--Gly--Ala--LeuCH2 Br]
Protease-Inhibiting Activity of Selected Peptide Halomethyl Ketones: Activity [1]: +++ (key: -: no activity; +/-: low activity; +: active at 100 μg/mL; ++: active at 50 μg/mL; +++: active at 10 μg/mL; ++++: active at <5 μg/mL)

Z-Phe-Gly-Ala-LeuCH2 Cl ({code Z}-FGAL-CH2Cl; reading uncertain; also: printed as Z-Phe-Gly-Ala-LeuCH2 Cl) [Z--Phe--Gly--Ala--LeuCH2 Cl]
Protease-Inhibiting Activity of Selected Peptide Halomethyl Ketones: Activity [1]: +++ (key: -: no activity; +/-: low activity; +: active at 100 μg/mL; ++: active at 50 μg/mL; +++: active at 10 μg/mL; ++++: active at <5 μg/mL)

Z-Phe-Gly-Ala-LeuCH3 ({code Z}-FGAL-CH2; reading uncertain; also: printed as Z-Phe-Gly-Ala-LeuCH3)
activity in the viral cleavage assay (human rhinovirus type 1A [2]; test concentration 100 μg/mL): demonstrated activity | plaque reduction (human rhinovirus type 1A [3]; 50 μg/mL in agar overlay, compared to control plates): > 90% | plaque reduction (poliovirus type 2): > 90% | activity in the viral cleavage assay ([1]; 50 μg/mL): active | activity in the viral cleavage assay ([1]; test concentration 100 μg/mL): demonstrated activity

Z-Phe-Gly-Ala-TyrCH2 Cl ({code Z}-FGAY-CH2Cl; reading uncertain; also: printed as Z-Phe-Gly-Ala-TyrCH2 Cl) [Z--Phe--Gly--Ala--TyrCH2 Cl]
Protease-Inhibiting Activity of Selected Peptide Halomethyl Ketones: Activity [1]: ++ (key: -: no activity; +/-: low activity; +: active at 100 μg/mL; ++: active at 50 μg/mL; +++: active at 10 μg/mL; ++++: active at <5 μg/mL)

Z-Phe-Gly-Ala-ValCH2 Cl ({code Z}-FGAV-CH2Cl; reading uncertain; also: printed as Z-Phe-Gly-Ala-ValCH2 Cl) [Z--Phe--Gly--Ala--ValCH2 Cl]
Protease-Inhibiting Activity of Selected Peptide Halomethyl Ketones: Activity [1]: ++ (key: -: no activity; +/-: low activity; +: active at 100 μg/mL; ++: active at 50 μg/mL; +++: active at 10 μg/mL; ++++: active at <5 μg/mL)

Z-Phe-Gly-Leu-LeuCH2 Cl ({code Z}-FGLL-CH2Cl; reading uncertain; also: printed as Z-Phe-Gly-Leu-LeuCH2 Cl) [Z--Phe--Gly--Leu--LeuCH2 Cl]
concentration at which cytotoxicity was first detected (human HeLa-O cells): about 15 μg/mL | Antiviral activity, as scored by 90% plaque reduction, noted at concentration (human rhinovirus type 1A [3]; HeLa cells, agar overlay): 1 µg/mL | Protease-Inhibiting Activity of Selected Peptide Halomethyl Ketones: Activity [1]: ++++ (key: -: no activity; +/-: low activity; +: active at 100 μg/mL; ++: active at 50 μg/mL; +++: active at 10 μg/mL; ++++: active at <5 μg/mL)

Z-Phe-Gly-Leu-LeuCH3 [Z--Phe--Gly--Leu--LeuCH3]
activity in the viral cleavage assay (human rhinovirus type 1A [2]): demonstrated activity | activity in the viral cleavage assay [1]: demonstrated activity

Z-Phe-Gly-Ser-LeuCH2 Cl ({code Z}-FGSL-CH2Cl; reading uncertain; also: printed as Z-Phe-Gly-Ser-LeuCH2 Cl) [Z--Phe--Gly--Ser--LeuCH2 Cl]
Protease-Inhibiting Activity of Selected Peptide Halomethyl Ketones: Activity [1]: ++ (key: -: no activity; +/-: low activity; +: active at 100 μg/mL; ++: active at 50 μg/mL; +++: active at 10 μg/mL; ++++: active at <5 μg/mL)

Z-Phe-Ser-Ala-LeuCH2 Cl ({code Z}-FSAL-CH2Cl; reading uncertain; also: printed as Z-Phe-Ser-Ala-LeuCH2 Cl) [Z--Phe--Ser--Ala--LeuCH2 Cl]
Comparative Experiments Involving Other Peptide Halomethyl Ketones: Activity [1]: + (key: -: no activity; +/-: low activity; +: active at 100 μg/mL; ++: active at 50 μg/mL; +++: active at 10 μg/mL; ++++: active at <5 μg/mL)
